PMC6259611, “Comparative Anti-Infectious Bronchitis Virus (IBV) Activity of (-)-Pinene: Effect on Nucleocapsid (N) Protein” (Molecules, 2011)
Values joined by “and” are separate entries in the source; they are usually repeats but may differ in a detail not shown here. Equal entries are not always repeated.

Experiments:
[1] = test system: IBV (Gray strain)
Experimental: The compound was aspirated and cells were washed immediately before the IBV inoculum was added. […] For analyzing the anti-IBV inhibition during the adsorption period, the same amount of IBV was mixed with the drug and added to the cells immediately. After 1h of adsorption at 37 °C, the inoculum was removed and DMEM supplemented with 2% FCS were added to the cells. […] Each assay was run in eight replicates. Ribavirin was used as a positive control.

[2] = test system: Vero-E6 cells; experiment: in vitro; conditions: Vero cells, 72 h, MTT
Experimental: (§1) Vero-E6 (African green monkey kidney cells) was purchased from Harbin Veterinary Research Institute (Harbin, P. R. China). The cells were grown in monolayer culture with Dulbecco’s modified Eagle’s medium (DMEM) supplemented with 10% fetal calf serum (FCS), 100 U/mL penicillin and 100 μg/mL streptomycin. The monolayers were removed from their plastic surfaces and serially passaged whenever they became confluent. Cells were plated out onto 96-well culture plates for cytotoxicity and anti-IBV assays, and propagated at 37 °C in an atmosphere of 5 % CO2.
(§2) The supernatants were discarded, washed with PBS twice and MTT reagent (5 mg/mL in PBS) was added to each well, after incubated at 37 °C for 4 h, remove the supernatants, then 200 μL DMSO was added and incubated at 37 °C for another 30 min. After that the plates were read on an ELISA reader (Thermo Molecular Devices Co., Union City, USA) at 570/630 nm. The mean OD of the cell control wells was assigned a value of 100%. The maximal non-toxic concentration (TD0) and 50% cytotoxic concentration (CC50) were calculated by linear regression analysis of the dose-response curves generated from the data.

[3] = in vitro; conditions: African green monkey
Experimental: as §1, §2

[4] = test system: IBV (Gray strain); experiment: Anti-IBV activity (inhibition of virus replication, MTT method); type: cell-based, Infectious bronchitis virus; conditions: Avian coronavirus, Vero, 72 h
Experimental: The IBV Gray strain was purchased from National Control Institute of Veterinatory Bioproducts and Pharmaceuticals (Beijing, P. R. China). Virus was routinely grown on Vero-E6 cells. IBV-Gray stock cultures were prepared from supernatants of infected cells and stored at −80 °C.
Inhibition of virus replication was measured by MTT method. Serial dilution of the treated virus was adsorbed to the cells for 1 h at 37 °C. The residual inoculum was discared and infected cells were added with DMEM containing 2% FCS. Each assay was performed in eight replicates. After incubation for 72 h at 37 °C, the cultures were measured by MTT method as described above.

| SMILES | inhibition [1] | TD0 (maximum noncytotoxic concentration) [2] [mM] | CC50 at 72 h [3] [µM] | IC50 [4] [µM] |
| --- | --- | --- | --- | --- |
| C=C1CCC2CC1C2(C)C (stereo not drawn) [(-)-β-pinene] | 81% and 55.4% | 6.09 ± 0.31 | > 10000 | 1320 ± 110 |
| CC1=CCC2CC1C2(C)C (stereo not drawn) [(-)-α-pinene] | 87% and 67.6% | – | > 10000 | 980 ± 250 |
| NC(=O)c1ncn([C@@H]2O[C@H](CO)[C@@H](O)[C@H]2O)n1 [Ribavirin, ribavirin, reference compound] | 90.2 ± 2.8% | – | > 1000 | 118 ± 20 |
